{"source": "paper PMC10816276", "about": "(International Journal of Molecular Sciences, 2024)", "key": {"[1]": {"system": "Human melanoma A375 tumor cells", "experiment": "CCK-8 cell proliferation and cytotoxicity assay, A375", "format": "cell-based", "protocol": "I. Cell lines and cell culture. Human melanoma A375 tumor cells and human immortalized keratinocyte (HaCaT) non-tumor cells were obtained from Nanjing Pusheng Biomedical Technology Co., Ltd. (Nanjing, China). The cells (A375/HaCaT) were cultured in Dulbecco’s modified Eagle’s medium (DMEM, Gibco, New York, NY, USA) supplemented with 10% (v/v) fetal bovine serum (FBS, Gibco, New York, NY, USA), and incubated at 37 °C with 5% CO2 in a humidified incubator.\nII. Cell viability assay. Cell proliferation and cytotoxicity assays were conducted using the Cell counting kit-8 (CCK-8) on A375 and HaCaT cells. Briefly, the cells were initially seeded in 96-well plates at a density of 4 × 10^4 cells per well and incubated for 24 h at 37 °C with 5% CO2 in a humidified incubator. Each treatment was performed in six duplicate wells. The tested compounds were added at various concentrations, and the cells were then incubated for 72 h. Following the incubation period, CCK-8 solution (Dojindo Laboratories, Kumamoto, Japan) was added to each well, and the plates were further incubated for 2 h. The absorbance of each well at 450 nm was measured using an absorbance microplate reader (BioTek ELx800, Winooski, VT, USA). The assay included negative controls in which cells were treated with ultrapure water and positive controls in which cells were treated with 10 µg·mL^−1 taxol. The percentage of cell growth inhibition was calculated using the following Equation (3). (3) Cell growth inhibition rate [%]=B1−B2/B1−B3×100 where B1 represents the absorbance of a mixture containing cells, medium, and CCK-8 solution, B2 represents the absorbance of a mixture containing cells, medium, CCK-8 solution, and the test compound; and B3 represents a mixture containing medium and CCK-8 solution."}, "ICR mice": {"system": "ICR mice", "experiment": "Acute oral toxicity, 14 days", "format": "in vivo", "settings": "for Death rate / Death toll (♀/♂): 20 mice; for Toxic Symptoms (♀/♂) Perianal Uncleanliness / Toxic Symptoms (♀/♂) Prone State / Toxic Symptoms (♀/♂) Reduced Activities / Toxic Symptoms (♀/♂) Shortness of Breath: n = 20 mice", "protocol": "I. Animals. […] Male and female mice were raised separately in sterile PC transparent cages in the room with a 12 h light-dark cycle. The animal procedures followed the guidelines of the National Institute of Health Guide for the Care and Use of Laboratory Animals and were approved by the Institutional Animal Care and Use Committee (IACUC) of Yunnan Institute of Materia Medica.\nII. Acute oral_toxicity. […] In this experiment, a 5% sodium carboxymethyl cellulose solution (5% CMC-Na) was chosen as the Vehicle and the solvent for 6′-O-caffeoylarbutin. […] Each mouse in the Vehicle group received an administration of 40 mL∙kg-1 of 5% CMC-Na. The treatment groups were orally administrated 6′-O-caffeoylarbutin twice within a 24_h period, with an interval of approximately 3.5–4.0 h, by dissolving in 5% CMC-Na at three different concentrations. Following administration, all animals in each group were closely monitored for about 2–5 h to observe any physical changes, monitor body weight, and record the death rate. The surviving mice were observed and monitored for an additional 14 days, with their body weight recorded on the 1st, 3rd, 7th, and 14th days. Animals that died during the experimental period or those that survived until the conclusion of the toxicity test were subjected to necropsy, and their organs were histopathologically observed and analyzed. All studies were conducted in accordance with the requirements of Good Laboratory Practice."}, "apple juice": {"system": "apple juice", "experiment": "Browning inhibitory effect on apple juice", "parameters": "species or system Zhaotong Red Fuji apples", "settings": "absorbance at 420 nm, compared to apple juice blank control", "protocol": "To investigate the anti-browning effect of 6′-O-caffeoylarbutin, apple juice was used following a modified method based on the literature. Zhaotong Red Fuji apples were carefully chosen to ensure uniform shape, color, size, and maturity, free from any physical damage. After peeling, the apples were sliced into 10 g portions. These apple pieces were then immersed in solutions containing different concentrations of 6′-O-caffeoylarbutin for 10 min, followed by homogenization. The homogenized samples were subsequently subjected to centrifugation at 8000 rpm for 5 min at 4 °C, and the resulting supernatant (3 mL) was collected. Simultaneously, a blank control was prepared by extracting apple juice without the addition of any anti-browning agent. The absorbance of the samples at 420 nm was measured using a UV_vis spectrophotometer."}}}
{"smiles": "O=C(C=Cc1ccc(O)c(O)c1)OCC1OC(Oc2ccc(O)cc2)C(O)C(O)C1O", "note": "(stereo not drawn) [6′-O-caffeoylarbutin]", "values": [{"measurement": "inhibition rate", "setting": "[1]; 3.125–100 μg∙mL^−1, 72 h", "result": "below 5%"}, {"measurement": "inhibition at 200 µg/mL", "setting": "[1]; Homo sapiens, A-375, 200 μg∙mL^−1, 72 h, read-out: inhibition rate", "result": 20, "unit": "%"}, {"measurement": "inhibition at 400 µg/mL", "setting": "[1]; Homo sapiens, A-375, 400 μg∙mL^−1, 72 h, read-out: inhibition rate", "result": 67.8, "unit": "%"}, {"measurement": "IC50", "setting": "[1]; Homo sapiens, A-375, 72 h, CCK-8", "result": 313, "unit": "µg/mL"}, {"measurement": "Death rate", "setting": "ICR mice; CA-1, 28056 mg·kg-1 oral", "result": 25, "unit": "%"}, {"measurement": "Death toll (♀/♂)", "setting": "ICR mice; CA-1, 28056 mg·kg-1 oral", "result": "3/2"}, {"measurement": "Toxic Symptoms (♀/♂) Perianal Uncleanliness", "setting": "ICR mice; CA-1, 28,056 mg·kg^−1 oral", "result": 0}, {"measurement": "Toxic Symptoms (♀/♂) Prone State", "setting": "ICR mice; CA-1, 28,056 mg·kg^−1 oral", "result": "2 (0/2)"}, {"measurement": "Toxic Symptoms (♀/♂) Reduced Activities", "setting": "ICR mice; CA-1, 28,056 mg·kg^−1 oral", "result": "8 (2/6)"}, {"measurement": "Toxic Symptoms (♀/♂) Shortness of Breath", "setting": "ICR mice; CA-1, 28,056 mg·kg^−1 oral", "result": "4 (2/2)"}, {"measurement": "Body weight gain", "setting": "ICR mice; CA-1, Female mice", "result": "2.22 ± 0.62", "unit": "g"}, {"measurement": "body weight, 1st day after the delivery", "setting": "ICR mice; CA-1, Female mice", "result": "22.26±0.97"}, {"measurement": "body weight, 3rd day after the delivery", "setting": "ICR mice; CA-1, Female mice", "result": "24.28±1.18"}, {"measurement": "body weight, 7th day after the delivery", "setting": "ICR mice; CA-1, Female mice", "result": "24.88±1.09"}, {"measurement": "body weight, 14th day after the delivery", "setting": "ICR mice; CA-1, Female mice", "result": "27.10±1.39"}, {"measurement": "Body weight gain", "setting": "ICR mice; CA-1, Male mice", "result": "2.65 ± 1.01", "unit": "g"}, {"measurement": "body weight, 1st day after the delivery", "setting": "ICR mice; CA-1, Male mice", "result": "30.75±2.11"}, {"measurement": "body weight, 3rd day after the delivery", "setting": "ICR mice; CA-1, Male mice", "result": "33.62±2.35"}, {"measurement": "body weight, 7th day after the delivery", "setting": "ICR mice; CA-1, Male mice", "result": "35.25±2.53"}, {"measurement": "body weight, 14th day after the delivery", "setting": "ICR mice; CA-1, Male mice", "result": "37.90±3.13"}, {"measurement": "Death rate", "setting": "ICR mice; CA-2, 23848 mg·kg-1 oral", "result": 5, "unit": "%"}, {"measurement": "Death toll (♀/♂)", "setting": "ICR mice; CA-2, 23848 mg·kg-1 oral", "result": "0/1"}, {"measurement": "Toxic Symptoms (♀/♂) Perianal Uncleanliness", "setting": "ICR mice; CA-2, 23,848 mg·kg^−1 oral", "result": 0}, {"measurement": "Toxic Symptoms (♀/♂) Prone State", "setting": "ICR mice; CA-2, 23,848 mg·kg^−1 oral", "result": 0}, {"measurement": "Toxic Symptoms (♀/♂) Reduced Activities", "setting": "ICR mice; CA-2, 23,848 mg·kg^−1 oral", "result": "1 (0/1)"}, {"measurement": "Toxic Symptoms (♀/♂) Shortness of Breath", "setting": "ICR mice; CA-2, 23,848 mg·kg^−1 oral", "result": 0}, {"measurement": "Body weight gain", "setting": "ICR mice; CA-2, Female mice", "result": "1.88 ± 1.17", "unit": "g"}, {"measurement": "body weight, 1st day after the delivery", "setting": "ICR mice; CA-2, Female mice", "result": "21.58±1.21"}, {"measurement": "body weight, 7th day after the delivery", "setting": "ICR mice; CA-2, Female mice", "result": "23.59±0.50"}, {"measurement": "body weight, 14th day after the delivery", "setting": "ICR mice; CA-2, Female mice", "result": "25.47±1.36"}, {"measurement": "Body weight gain", "setting": "ICR mice; CA-2, Male mice", "result": "3.38 ± 1.23", "unit": "g"}, {"measurement": "body weight, 1st day after the delivery", "setting": "ICR mice; CA-2, Male mice", "result": "30.91±0.87"}, {"measurement": "body weight, 3rd day after the delivery", "setting": "ICR mice; CA-2, Male mice", "result": "33.07±1.24"}, {"measurement": "body weight, 7th day after the delivery", "setting": "ICR mice; CA-2, Male mice", "result": "33.88±1.71"}, {"measurement": "body weight, 14th day after the delivery", "setting": "ICR mice; CA-2, Male mice", "result": "37.26±2.19"}, {"measurement": "Death toll (♀/♂)", "setting": "ICR mice; CA-3, 20272 mg·kg-1 oral", "result": "0/0"}, {"measurement": "Toxic Symptoms (♀/♂) Perianal Uncleanliness", "setting": "ICR mice; CA-3, 20,272 mg·kg^−1 oral", "result": 0}, {"measurement": "Toxic Symptoms (♀/♂) Prone State", "setting": "ICR mice; CA-3, 20,272 mg·kg^−1 oral", "result": 0}, {"measurement": "Toxic Symptoms (♀/♂) Reduced Activities", "setting": "ICR mice; CA-3, 20,272 mg·kg^−1 oral", "result": 0}, {"measurement": "Toxic Symptoms (♀/♂) Shortness of Breath", "setting": "ICR mice; CA-3, 20,272 mg·kg^−1 oral", "result": 0}, {"measurement": "Body weight gain", "setting": "ICR mice; CA-3, Female mice", "result": "2.41 ± 1.51", "unit": "g"}, {"measurement": "body weight, 1st day after the delivery", "setting": "ICR mice; CA-3, Female mice", "result": "22.21±0.87"}, {"measurement": "body weight, 3rd day after the delivery", "setting": "ICR mice; CA-3, Female mice", "result": "23.36±0.66"}, {"measurement": "body weight, 14th day after the delivery", "setting": "ICR mice; CA-3, Female mice", "result": "26.62±1.54"}, {"measurement": "Body weight gain", "setting": "ICR mice; CA-3, Male mice", "result": "1.45 ± 3.11", "unit": "g"}, {"measurement": "body weight, 1st day after the delivery", "setting": "ICR mice; CA-3, Male mice", "result": "30.89±1.57"}, {"measurement": "body weight, 3rd day after the delivery", "setting": "ICR mice; CA-3, Male mice", "result": "33.88±1.41"}, {"measurement": "body weight, 7th day after the delivery", "setting": "ICR mice; CA-3, Male mice", "result": "35.33±1.44"}, {"measurement": "body weight, 14th day after the delivery", "setting": "ICR mice; CA-3, Male mice", "result": "36.78±3.53"}, {"measurement": "deaths", "setting": "ICR mice; mouse, in vivo", "result": "no deaths"}, {"measurement": "formation of browning compounds in apple juice", "setting": "apple juice", "result": "significant reduction in the formation of browning compounds in a dose-dependent manner"}]}
